Source: publication PMC7912796, “Design, Synthesis, Anticancer Activity, and Solid Lipid Nanoparticle Formulation of Indole- and Benzimidazole-Based Compounds as Pro-Apoptotic Agents Targeting Bcl-2 Protein” (Pharmaceuticals, 2021)

Experiments:
Caspase-3 gene = assay: RT-PCR apoptotic gene expression; assay type: cell-based, human; settings: 13 μM, 48 h, MDA-MB-231, vs negative control
Method: (§1) Dissection of the compound’s proapoptotic activity was proceeded through gene expression analysis for key genes, controlling apoptosis pathway, as well as protein level determination. Following 8b treatment for 48 h, alterations within MDA-MB-231/breast cancer cell expression of Bcl-2, Bax, caspase-3, -8, and -9 genes, as well as cytochrome c and class-III β-tubulin proteins levels were determined using real-time polymerase chain reaction (RT-PCR) or ELISA technique, respectively. Typically, Bcl-2, Bax, caspases, and cytochrome c proteins contributes within the regulation of apoptotic signaling. Acting as apoptotic activator (Bax) or inhibitor (Bcl-2), the Bcl-2 family proteins play their significant role in apoptosis. The caspases family are cysteine proteases being classified as either executioners; caspase-3, -6, or -7 or initiators; caspase-8 and -9 [36]. Regrading caspase-8, its activation is proceeded through extrinsic death-receptor dependent apoptotic pathway, while, caspase-9 activation is within the event of intrinsic mitochondrial cytochrome c leakage. Additionally, participation of activated caspase-3 is to be essential for […] activation. Class-III β-tubulin are pure prognostic biomarker within cancer patients being associated with aggressive phenotypic/drug-resistant cancers and part of complicated pro-survival molecular pathway, being triggered via poor nutrient supply and hypoxia.
(§2) Quantitative Real-time PCR was operated on Rotor-Gene Q® PCR system as a reader (Cat.#: 204774; Qiagen^TM, Milan, Italy) via GenElute® RNA extraction/SIGMA PCR kit (Cat.#: REI10; Qiagen^TM, Milan, Italy)^86. Cells were treated with IC50 of 8b for 48 h and total RNA was extracted from the non-treated and treated cells. RNA purity was assessed via Nanodrop® 2000/2000c UV-Vis spectrophotometer (Thermo-Scientific^TM, Bilbao, Spain). Synthesis of cDNA was proceeded using QuantiNova® Reverse Transcription Kit (Cat.#: RTN30; Qiagen^TM, Milan, Italy) and the subsequent PCR tests were conducted via single tubes. Specific forward/reverse primer pairs were selected for investigated (Casp-3, -8, -9, BAX, and Bcl2). Obtained results were expressed within Cycle threshold (Ct) values, while relative quantitation of each measured gene was assessed based on ΔΔCt calculations as represented in Table 5 [79].

BAX gene = assay: RT-PCR apoptotic gene expression; assay type: cell-based, human; settings: 13 μM, 48 h, MDA-MB-231, vs negative control
Method: as §1, §2

Bcl-2 gene = assay: RT-PCR apoptotic gene expression; assay type: cell-based, human; settings: 13 μM, 48 h, MDA-MB-231, vs negative control
Method: as §1, §2

Caspase-9 gene = assay: RT-PCR apoptotic gene expression; assay type: cell-based, human; settings: 13 μM, 48 h, MDA-MB-231, vs negative control
Method: as §1, §2

Caspase-8 gene = assay: RT-PCR apoptotic gene expression; assay type: cell-based, human; settings: 13 μM, 48 h, MDA-MB-231, vs negative control
Method: as §1, §2

[1] = tested on: MDA-MB-231/breast cancer cells; assay: SRB cytotoxicity assay; assay type: cell-based; settings: Homo sapiens; MDA-MB-231, 72 h exposure
Method: MDA-MB-231: Breast Cancer cell line was obtained from Nawah^TM Scientific Inc., (Cairo, Egypt). Cells were maintained within DMEM provided by 100 units/mL of penicillin, […], and 10% of heat-inactivated FBS within 5% (v/v) CO2 humidified atmosphere (37 °C). The validity of cell line was evaluated adopting the previously reported approach. Briefly, an accurate volume (100 μL) of cell line suspension (5 × 10^3 cells) was placed in 96-well plates and incubated for 24 h within complete media. Cell line suspensions were then treated with another 100 μL media spiked with various drug concentrations (0.01, 0.1, 1, 10, 100 μM/mL) and kept for 72 h. Then the media were replaced with 150 μL of 10% trichloroacetic acid (TCA) for fixing cells through subsequent 1 h incubation at 4 °C [74]. Following incubation, TCA was removed, and cells were washed via distilled water 5 times. Aliquots of 70 μL SRB solution (0.4% w/v; Cat.# S1402; Sigma-Aldrich^TM, Taufkirchen, Germany) were added and cell were then incubated in dark for 10 min at 25 °C. Plates were subjected to triplicate washing via 1% acetic acid and then permitted to be air-dried overnight. Protein-bound SRB stain was extracted by addition of tris base (150 μL, 10 mM) and the absorbance was measured at 540 nm using FLUOstar-Omega® microplate reader (BMG-Labtech^TM GmbH, Ortenberg, Germany).

[2] = tested on: human cytochrome c protein; assay: ELISA protein level; assay type: cell-based; settings: 13 μM, 48 h, MDA-MB-231; control 0.295 ng/mL
Method: as §1, with “Class-III β-tubulin are pure prognostic biomarker within cancer patients being associated with aggressive phenotypic/drug-resistant cancers and part of complicated pro-survival molecular pathway, being triggered via poor nutrient supply and hypoxia.” left out
Quantikine® Colorimetric Sandwich-ELISA Kit (Cat.#: DCTC0; R&D Systems, Minneapolis, MN, USA) was used for quantitating the targeted human cytochrome c protein through immunoassay protocol. […]

[3] = tested on: Bax/Bcl-2 gene expression ratio; assay: RT-PCR Bax/Bcl-2 gene expression ratio; assay type: cell-based, human; settings: 13 μM, 48 h, MDA-MB-231; control 1
Method: Dissection of the compound’s proapoptotic activity was proceeded through gene expression analysis for key genes, controlling apoptosis pathway, as well as protein level determination. Following 8b treatment for 48 h, alterations within MDA-MB-231/breast cancer cell expression of Bcl-2, Bax, caspase-3, -8, and -9 genes, as well as cytochrome c and class-III β-tubulin proteins levels were determined using real-time polymerase chain reaction (RT-PCR) or ELISA technique, respectively. Typically, Bcl-2, Bax, caspases, and cytochrome c proteins contributes within the regulation of apoptotic signaling. Acting as apoptotic activator (Bax) or inhibitor (Bcl-2), the Bcl-2 family proteins play their significant role in apoptosis. The caspases family are cysteine proteases being classified as either executioners; caspase-3, -6, or -7 or initiators; caspase-8 and -9 [36]. […]
Quantitative Real-time PCR was operated on Rotor-Gene Q® PCR system as a reader (Cat.#: 204774; Qiagen^TM, Milan, Italy) via GenElute® RNA extraction/SIGMA PCR kit (Cat.#: REI10; Qiagen^TM, Milan, Italy)^86. […] RNA purity was assessed via Nanodrop® 2000/2000c UV-Vis spectrophotometer (Thermo-Scientific^TM, Bilbao, Spain). […] Obtained results were expressed within Cycle threshold (Ct) values, while relative quantitation of each measured gene was assessed based on ΔΔCt calculations as represented in Table 5 [79].

[4] = tested on: MDA-MB-231/breast cancer cells; assay: Morphological assessment; assay type: cell-based, human; settings: 0.1-100 µM, 48 h, phase-contrast microscope
Method: The impact of 8b on cancerous cellular morphology was evaluated over different concentrations following 48 h exposure time. In MDA-MB-231/breast cancer cells, normal membrane integrity and control group nucleus morphology was depicted for cells within vehicle negative control group (Figure 4A). […] At 100 µM concentration, the cell number became highly declined and great loss of cellular polyhedral shape was observed as cells acquired the tentacled spindle-shaped morphology (Figure 4E). These morphological changes were more drastic with 8b as compared to 5-FU for similar concentrations (100 µM) (Figure 4F).
The impact of this tested final compounds on the morphology of treated MDA-MB-231/breast cancer cell line was investigated, through planting cells within 6-well plates and subsequently incubated with 0.1, 1, 10, 100 µM of 8b […]. Variations within the cells’ morphology were identified via Olympus®-CKX53 Inverted Metallurgical light microscope (Olympus^TM, Center Valley, PA, USA), snapped by Olympus® Digital Camera, and analyzed by OLYMPUS® Stream image analysis software.

CCCc1ccc(-c2nn(-c3ccccc3)cc2C=NNC(=O)c2cc3ccccc3[nH]2)cc1 [Compound 8b, N′-((1-phenyl-3-(4-propylphenyl)-1H-pyrazol-4-yl)methylene)-1H-indole-2-carbohydrazide]
Caspase-3 gene expression (Caspase-3 gene): 4.28 folds | BAX gene expression (BAX gene): 3.61 folds | Bcl-2 gene expression (Bcl-2 gene): 0.165 folds | Caspase-9 gene expression (Caspase-9 gene): 7.65 folds | Caspase-8 gene expression (Caspase-8 gene): 1.53 folds | IC50 [1]: 12.4 ± 0.5 µM | cytochrome c level [2]: 0.675 ng/mL | Bax/Bcl expression ratio [3]: 21.88 | cell morphology alterations [4]: significant cell morphology alteration, intercellular space dilatation, and cellular shrinkage
